Data taken from US7906655B2, “Hepatitis C virus inhibitors” (Bristol-Myers Squibb Company, priority 2008, dated 2011).

tested on: HCV 1b genotype; assay: HCV Replicon assay (HCV-neo replicon cells, wild-type); type: cell-based; details: HCV 1b genotype replicon; class symbols
Method in brief: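 Inhibition was measured in HCV-neo (genotype 1b) replicon cells. Some assay versions used luciferase reporters.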

Structure (SMILES)	EC50
COc1ccc(C)cc1C(=O)N1CCC[C@H]1c1nc2ccc(C#Cc3ccc4[nH]c([C@@H]5CCCN5C(=O)[C@H]5CCCO5)nc4c3)cc2[nH]1 [Example M54.14, 5-((2S-((2S)-1-(2-methoxy-5-methylbenzoyl)-2-pyrrolidinyl)-1H-benzimidazol-6-yl)ethynyl)-2-((2S)-1-((2R)-tetrahydro-2-furanylcarbonyl)-2-pyrrolidinyl)-1H-benzimidazole]	100 to 999 nM
CC(=O)N1CCC[C@H]1c1nc2ccc(C#Cc3ccc4[nH]c([C@@H]5CCCN5C(=O)Cc5ccccn5)nc4c3)cc2[nH]1 [Example M54.20, 5-((2-((2S)-1-acetyl-2-pyrrolidinyl)-1H-benzimidazol-6-yl)ethynyl)-2-((2S)-1-(2-pyridinylacetyl)-2-pyrrolidinyl)-1H-benzimidazole]	4.57 to 99 nM

same assay, conditions: Hepatitis C virus, HCV 1b genotype replicon; class symbols

Structure (SMILES)	EC50
O=C(c1cccs1)N1CCC[C@H]1c1nc2cc(C#Cc3ccc4nc([C@@H]5CCCN5C(=O)[C@H]5CCCO5)[nH]c4c3)ccc2[nH]1 [Example M54.4, 5-((2-((2S)-1-((2R)-tetrahydro-2-furanylcarbonyl)-2-pyrrolidinyl)-1H-benzimidazol-6-yl)ethynyl)-2-((2S)-1-(2-thienylcarbonyl)-2-pyrrolidinyl)-1H-benzimidazole]	< 4.57 nM
O=C(c1ccoc1)N1CCC[C@H]1c1nc2ccc(C#Cc3ccc4[nH]c([C@@H]5CCCN5C(=O)[C@H]5CCCO5)nc4c3)cc2[nH]1 [Example M54.5, 5-((2-((2S)-1-(3-furoyl)-2-pyrrolidinyl)-1H-benzimidazol-6-yl)ethynyl)-2-((2S)-1-((2R)-tetrahydro-2-furanylcarbonyl)-2-pyrrolidinyl)-1H-benzimidazole]	4.57 to 99 nM
Cn1cccc1C(=O)N1CCC[C@H]1c1nc2ccc(C#Cc3ccc4[nH]c([C@@H]5CCCN5C(=O)[C@H]5CCCO5)nc4c3)cc2[nH]1 [Example M54.6, 5-((2-((2S)-1-((1-methyl-1H-pyrrol-2-yl)carbonyl)-2-pyrrolidinyl)-1H-benzimidazol-6-yl)ethynyl)-2-((2S)-1-((2R)-tetrahydro-2-furanylcarbonyl)-2-pyrrolidinyl)-1H-benzimidazole]	4.57 to 99 nM
CCC(=O)N1CCC[C@H]1c1nc2ccc(C#Cc3ccc4[nH]c([C@@H]5CCCN5C(=O)[C@H]5CCCO5)nc4c3)cc2[nH]1 [Example M54.7, 5-((2-((2S)-1-propionyl-2-pyrrolidinyl)-1H-benzimidazol-6-yl)ethynyl)-2-((2S)-1-((2R)-tetrahydro-2-furanylcarbonyl)-2-pyrrolidinyl)-1H-benzimidazole]	4.57 to 99 nM
CC(C)C(=O)N1CCC[C@H]1c1nc2ccc(C#Cc3ccc4[nH]c([C@@H]5CCCN5C(=O)[C@H]5CCCO5)nc4c3)cc2[nH]1 [Example M54.8, 5-((2-((2S)-1-isobutyryl-2-pyrrolidinyl)-1H-benzimidazol-6-yl)ethynyl)-2-((2S)-1-((2R)-tetrahydro-2-furanylcarbonyl)-2-pyrrolidinyl)-1H-benzimidazole]	4.57 to 99 nM
O=C(C1CC1)N1CCC[C@H]1c1nc2ccc(C#Cc3ccc4[nH]c([C@@H]5CCCN5C(=O)[C@H]5CCCO5)nc4c3)cc2[nH]1 [Example M54.9, 5-((2-((2S)-1-(cyclopropyl-carbonyl)-2-pyrrolidinyl)-1H-benzimidazol-6-yl)ethynyl)-2-((2S)-1-((2R)-tetrahydro-2-furanylcarbonyl)-2-pyrrolidinyl)-1H-benzimidazole]	4.57 to 99 nM
O=C(C1CCC1)N1CCC[C@H]1c1nc2ccc(C#Cc3ccc4[nH]c([C@@H]5CCCN5C(=O)[C@H]5CCCO5)nc4c3)cc2[nH]1 [Example M54.10, 5-((2-((2S)-1-(cyclobutyl-carbonyl)-2-pyrrolidinyl)-1H-benzimidazol-6-yl)ethynyl)-2-((2S)-1-((2R)-tetrahydro-2-furanylcarbonyl)-2-pyrrolidinyl)-1H-benzimidazole]	4.57 to 99 nM
CNc1ccccc1C(=O)N1CCC[C@H]1c1nc2cc(C#Cc3ccc4[nH]c([C@@H]5CCCN5C(=O)[C@H]5CCCO5)nc4c3)ccc2[nH]1 [Example M54.11, N-methyl-2-(((2S)-2-(5-((2-((2S)-1-((2R)-tetrahydro-2-furanylcarbonyl)-2-pyrrolidinyl)-1H-benzimidazol-5-yl)ethynyl)-1H-benzimidazol-2-yl)-1-pyrrolidinyl)carbonyl)aniline]	4.57 to 99 nM
CCCOc1ccccc1C(=O)N1CCC[C@H]1c1nc2ccc(C#Cc3ccc4[nH]c([C@@H]5CCCN5C(=O)[C@H]5CCCO5)nc4c3)cc2[nH]1 [Example M54.12, 5-((2-((2S)-1-(2-propoxybenzoyl)-2-pyrrolidinyl)-1H-benzimidazol-6-yl)ethynyl)-2-((2S)-1-((2R)-tetrahydro-2-furanylcarbonyl)-2-pyrrolidinyl)-1H-benzimidazole]	100 to 999 nM
O=C(c1ccccc1NCc1ccccc1)N1CCC[C@H]1c1nc2cc(C#Cc3ccc4[nH]c([C@@H]5CCCN5C(=O)[C@H]5CCCO5)nc4c3)ccc2[nH]1 [Example M54.13, N-benzyl-2-(((2S)-2-(5-((2-((2S)-1-((2R)-tetrahydro-2-furanylcarbonyl)-2-pyrrolidinyl)-1H-benzimidazol-5-yl)ethynyl)-1H-benzimidazol-2-yl)-1-pyrrolidinyl)carbonyl)aniline]	100 to 999 nM
O=C(CCOc1ccccc1)N1CCC[C@H]1c1nc2ccc(C#Cc3ccc4[nH]c([C@@H]5CCCN5C(=O)[C@H]5CCCO5)nc4c3)cc2[nH]1 [Example M54.15, 5-((2-((2S)-1-(3-phenoxypropanoyl)-2-pyrrolidinyl)-1H-benzimidazol-6-yl)ethynyl)-2-((2S)-1-((2R)-tetrahydro-2-furanylcarbonyl)-2-pyrrolidinyl)-1H-benzimidazole]	4.57 to 99 nM
CC(=O)N1CCC[C@H]1c1nc2ccc(C#Cc3ccc4[nH]c([C@@H]5CCCN5C(=O)Cc5ccccc5)nc4c3)cc2[nH]1 [Example M54.16, 5-((2-((2S)-1-acetyl-2-pyrrolidinyl)-1H-benzimidazol-6-yl)ethynyl)-2-((2S)-1-(phenylacetyl)-2-pyrrolidinyl)-1H-benzimidazole]	4.57 to 99 nM
COc1cccc(CC(=O)N2CCC[C@H]2c2nc3cc(C#Cc4ccc5nc([C@@H]6CCCN6C(C)=O)[nH]c5c4)ccc3[nH]2)c1 [Example M54.17, 5-((2-((2S)-1-acetyl-2-pyrrolidinyl)-1H-benzimidazol-6-yl)ethynyl)-2-((2S)-1-((3-methoxyphenyl)acetyl)-2-pyrrolidinyl)-1H-benzimidazole]	4.57 to 99 nM
CC(=O)N1CCC[C@H]1c1nc2ccc(C#Cc3ccc4[nH]c([C@@H]5CCCN5C(=O)c5ccccc5)nc4c3)cc2[nH]1 [Example M54.18, 5-((2-((2S)-1-acetyl-2-pyrrolidinyl)-1H-benzimidazol-6-yl)ethynyl)-2-((2S)-1-benzoyl-2-pyrrolidinyl)-1H-benzimidazole]	4.57 to 99 nM
CCc1ccccc1C(=O)N1CCC[C@H]1c1nc2cc(C#Cc3ccc4nc([C@@H]5CCCN5C(C)=O)[nH]c4c3)ccc2[nH]1 [Example M54.19, 5-((2-((2S)-1-acetyl-2-pyrrolidinyl)-1H-benzimidazol-6-yl)ethynyl)-2-((2S)-1-(2-ethylbenzoyl)-2-pyrrolidinyl)-1H-benzimidazole]	100 to 999 nM
CC(=O)N1CCC[C@H]1c1nc2ccc(C#Cc3ccc4[nH]c([C@@H]5CCCN5C(=O)Cc5cccnc5)nc4c3)cc2[nH]1 [Example M54.21, 5-((2-((2S)-1-acetyl-2-pyrrolidinyl)-1H-benzimidazol-6-yl)ethynyl)-2-((2S)-1-(3-pyridinylacetyl)-2-pyrrolidinyl)-1H-benzimidazole]	4.57 to 99 nM
CC(=O)N1CCC[C@H]1c1nc2ccc(C#Cc3ccc4[nH]c([C@@H]5CCCN5C(=O)c5cccnc5)nc4c3)cc2[nH]1 [Example M54.22, 5-((2-((2S)-1-acetyl-2-pyrrolidinyl)-1H-benzimidazol-6-yl)ethynyl)-2-((2S)-1-(3-pyridinylcarbonyl)-2-pyrrolidinyl)-1H-benzimidazole]	100 to 999 nM
CC(=O)N1CCC[C@H]1c1nc2ccc(C#Cc3ccc4[nH]c([C@@H]5CCCN5C(=O)Cc5cccs5)nc4c3)cc2[nH]1 [Example M54.23, 5-((2-((2S)-1-acetyl-2-pyrrolidinyl)-1H-benzimidazol-6-yl)ethynyl)-2-((2S)-1-(2-thienylacetyl)-2-pyrrolidinyl)-1H-benzimidazole]	4.57 to 99 nM
CC(=O)N1CCC[C@H]1c1nc2ccc(C#Cc3ccc4[nH]c([C@@H]5CCCN5C(=O)c5cccs5)nc4c3)cc2[nH]1 [Example M54.24, 5-((2-((2S)-1-acetyl-2-pyrrolidinyl)-1H-benzimidazol-6-yl)ethynyl)-2-((2S)-1-(2-thienylcarbonyl)-2-pyrrolidinyl)-1H-benzimidazole]	4.57 to 99 nM
CC(=O)N1CCC[C@H]1c1nc2ccc(C#Cc3ccc4[nH]c([C@@H]5CCCN5C(=O)[C@H]5CCCO5)nc4c3)cc2[nH]1 [Example M54.25, 5-((2-((2S)-1-acetyl-2-pyrrolidinyl)-1H-benzimidazol-6-yl)ethynyl)-2-((2S)-1-((2R)-tetrahydro-2-furanylcarbonyl)-2-pyrrolidinyl)-1H-benzimidazole]	100 to 999 nM
CC(=O)N1CCC[C@H]1c1nc2cc(C#Cc3ccc4[nH]c([C@@H]5CCCN5C(=O)OCc5ccccc5)nc4c3)ccc2[nH]1 [Example M54.26, benzyl (2S)-2-(5-((2-((2S)-1-acetyl-2-pyrrolidinyl)-1H-benzimidazol-5-yl)ethynyl)-1H-benzimidazol-2-yl)-1-pyrrolidine-carboxylate]	4.57 to 99 nM
CC(=O)N1CCC[C@H]1c1nc2ccc(C#Cc3ccc4[nH]c([C@@H]5CCCN5C(=O)[C@@H]5CCCN5C)nc4c3)cc2[nH]1 [Example M54.27, 5-((2-((2S)-1-acetyl-2-pyrrolidinyl)-1H-benzimidazol-6-yl)ethynyl)-2-((2S)-1-(1-methyl-L-prolyl)-2-pyrrolidinyl)-1H-benzimidazole]	1000 to 10000 nM
CC(=O)N1CCC[C@H]1c1nc2cc(C#Cc3ccc4nc([C@@H]5CCCN5C(C)=O)[nH]c4c3)ccc2[nH]1 [Example M54.28, 2-((2S)-1-acetyl-2-pyrrolidinyl)-5-((2-((2S)-1-acetyl-2-pyrrolidinyl)-1H-benzimidazol-6-yl)ethynyl)-1H-benzimidazole]	100 to 999 nM
